Earlier results in patent publication US12636263B2, “Carotenoid compound coming from plant and containing natural astaxanthin, preparation method therefor, and composition” (Zhejiang Medicine Co., Ltd. Xinchang Pharmaceutical Factory, priority 2013, dated 2026).

Experiments:
[1] = in vivo; Johnson and An, Crit. Rev. Biotechnol, 1991
[2] = versus natural VE
[3] = in animal body

bioavailability, higher than that of astaxanthin in the form of fatty acid ester [1] | bioavailability, higher than that of (3 R, 3 R)′-configuration [3] [wt %] | Compound | oxidizability (antioxidant) relative to natural VE [2] [times]
higher than 15% |  | CC1=C(/C=C/C(C)=C/C=C/C(C)=C/C=C/C=C(C)/C=C/C=C(C)/C=C/C2=C(C)C(=O)C(O)CC2(C)C)C(C)(C)CC(O)C1=O (stereo not drawn) [astaxanthin, 3,3′-dihydroxy-4,4′-diketo-β,β′-carotene] | 1000
 | 15 | CC1=C(/C=C/C(C)=C/C=C/C(C)=C/C=C/C=C(C)/C=C/C=C(C)/C=C/C2=C(C)C(=O)[C@@H](O)CC2(C)C)C(C)(C)C[C@H](O)C1=O [(3 S, 3′S)-configuration, all-trans (3S, 3′S)-astaxanthin] | 
